# Source: patent US5798357A, “Agent for prophylaxis and treatment of thromboxane A2 -mediated diseases” (The Green Cross Corporation, priority 1994, dated 1998)
# Counter-ions that a name gives are not always drawn. Like-named read-outs stand apart in the source and are kept apart here.
# How the values were obtained:
# rabbit platelets = test: TXA2 release from rabbit platelets; format: cell-based; conditions: Oryctolagus cuniculus, Platelet, 8 min, washed rabbit platelets, 37° C., read-out: TXA2 release suppressing action: amount necessary for 50% inhibition of TXA2 release
# Protocol: TXA2 release from rabbit platelets Blood was taken from the carotid artery of normal rabbit using ethylenediaminetetraacetic acid (EDTA; 77 mM EDTA, 1/10 vol). The blood was centrifuged at 1800 rpm for 8 minutes and platelet rich plasma in the supernatant was recovered, which was then centrifuged at 3200 rpm for 8 minutes. The sediment (platelet) was washed with Tyrode-HEPES-EDTA buffer and centrifuged at 3200 rpm for 8 minutes. The sediment was suspended in Tyrode-HEPES buffer to prepare washed platelets (5×10^8 platelets/ml). 100% DMSO or a reagent (Compound A, 1.5 μl) was added to the washed platelets (270 μl) and the mixture was heated at 37° C. for 2 minutes. Then, collagen (10 μg/ml) and 1 mM Ca^2+ (or 1 mM Ca^2+ alone when investigating release from unstimulated platelets) were added and the experiment was started. After heating at 37° C. for 8 minutes, 10^-3 M indomethacin was added and the cuvette was placed in ice to stop the reaction. After centrifugation at 10,000 rpm for 10 minutes, the supernatant was taken and stored at -20° C. until used for the TXA2 determination. The TXA2 amount in the above Experimental Examples was measured as TXB2 (stable compound thereof) amount by the EIA method using TXB2 assay kit (manufactured by Amersham). | *1: amount necessary for 50% inhibition of TXA2 release (μM)
# TXA2 synthetase [1] = target: T1, TXA2 synthetase (Oryctolagus cuniculus, UniProt G1TAZ9); test: Inhibition of TXA2 synthetase using rabbit platelet microsome; format: biochemical; conditions: PGH2 5 nmol, 22° C., 3 minutes, measured as TXB2 by EIA, read-out: TXA2 synthetase inhibitory action: amount necessary for 50% inhibition of TXA2 synthesis
# T1 construct: to prepare a microsomal fraction; from tissue; host or cells: rabbit blood platelets, microsomal fraction
# T1 sequence (G1TAZ9 1-530): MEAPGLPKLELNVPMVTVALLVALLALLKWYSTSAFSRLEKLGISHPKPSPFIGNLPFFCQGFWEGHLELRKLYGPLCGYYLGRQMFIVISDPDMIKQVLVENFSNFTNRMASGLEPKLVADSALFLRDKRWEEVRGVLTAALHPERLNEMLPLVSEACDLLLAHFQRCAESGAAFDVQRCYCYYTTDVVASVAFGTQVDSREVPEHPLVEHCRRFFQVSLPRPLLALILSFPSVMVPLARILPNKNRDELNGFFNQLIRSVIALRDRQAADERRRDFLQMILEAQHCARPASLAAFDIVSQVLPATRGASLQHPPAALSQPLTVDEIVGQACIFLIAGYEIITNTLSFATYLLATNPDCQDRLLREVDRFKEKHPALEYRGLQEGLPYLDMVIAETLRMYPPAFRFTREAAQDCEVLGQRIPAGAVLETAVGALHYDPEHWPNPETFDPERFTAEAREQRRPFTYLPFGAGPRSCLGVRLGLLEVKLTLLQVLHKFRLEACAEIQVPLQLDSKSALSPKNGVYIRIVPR
# Protocol: Inhibition of TXA2 synthetase using rabbit platelet microsome
# Blood was taken from the carotid artery of normal rabbit, using EDTA (77 mM EDTA, 1/10 vol). The blood was centrifuged at 1300 rpm for 10 minutes and platelet rich plasma in the supernatant was recovered, which was centrifuged at 3400 rpm for 15 minutes. The sediment was washed with physiological saline (original volume) and centrifuged at 3400 rpm for 15 minutes. Then, 0.05M Tris-HCl buffer (1 mM EDTA, pH 7.5, 3-fold weight of the wet weight of platelets) was added to the sediment and the mixture was homogenated (2 minutes, full speed) using polytron. The homogenate was centrifuged at 8300 rpm for 15 minutes (Tomy RD-20III, No. 3N) and the supernatant was centrifuged at […] for 1 hour (Beckman TL-100, TLA100.3). The sediment was suspended in 0.05M Tris-HCl buffer (1 mM EDTA, pH 7.5, one-third weight of the wet weight of platelets) to prepare a microsomal fraction. The fraction was stored at -80° C. until used for the experiment.
# 0.05M Tris-HCl buffer (pH 7.5, 890 μl), 100 μl of the above-mentionedmicrosome (85 μg protein) and 100% DMSO or the reagent (Compound A, 5 μl) were added and the mixture was preincubated at 22° C. for 3 minutes. […]
# The TXA2 amount in the above Experimental Examples was measured as TXB2 (stable compound thereof) amount by the EIA method using TXB2 assay kit (manufactured by Amersham). […]
# TXA2 synthetase [2] = target: T2, TXA2 synthetase (Homo sapiens, UniProt P24557); test: inhibition of TXA2 synthetase by the use of human platelet microsome; format: biochemical; conditions: read-out: IC50 (amount necessary to inhibit 50% of TXA2 synthesis) of TXA2 synthetase inhibitory action
# T2 construct: human platelet microsome was used; from tissue; host or cells: human blood platelets, microsomal fraction
# T2 sequence (P24557 1-533): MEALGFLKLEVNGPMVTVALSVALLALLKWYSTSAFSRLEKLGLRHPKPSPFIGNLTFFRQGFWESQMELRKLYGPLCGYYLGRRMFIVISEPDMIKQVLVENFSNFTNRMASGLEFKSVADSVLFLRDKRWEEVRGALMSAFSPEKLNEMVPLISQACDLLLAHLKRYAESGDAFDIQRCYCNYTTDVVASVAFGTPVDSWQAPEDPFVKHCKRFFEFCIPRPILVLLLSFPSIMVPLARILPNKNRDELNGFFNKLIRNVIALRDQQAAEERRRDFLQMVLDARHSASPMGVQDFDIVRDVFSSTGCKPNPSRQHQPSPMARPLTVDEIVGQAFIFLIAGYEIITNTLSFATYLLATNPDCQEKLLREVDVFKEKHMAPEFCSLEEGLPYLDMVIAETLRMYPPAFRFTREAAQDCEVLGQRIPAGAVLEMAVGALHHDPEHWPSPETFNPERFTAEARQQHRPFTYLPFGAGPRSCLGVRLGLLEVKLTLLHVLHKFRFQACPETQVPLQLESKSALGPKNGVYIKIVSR
# Protocol: The TXA2 amount in the above Experimental Examples was measured as TXB2 (stable compound thereof) amount by the EIA method using TXB2 assay kit (manufactured by Amersham). inhibition of TXA2 synthetase by the use of human platelet microsome In the same manner as in Experimental Example 2 except that human platelet microsome was used instead of rabbit platelet microsome, the experiment was performed. Compound A, Compound B and Compound C were used as reagents.
# acute toxicity in rats = conditions: rat, in vivo, po, orally administered
# acute toxicity in dogs = conditions: dog, in vivo, po, orally administered
IC50 (TXA2 synthetase [2]),Compound,"IC50 (rabbit platelets; not stimulated, 1 mM Ca2+ alone)","IC50 (rabbit platelets; stimulated with collagen (10 μg/ml), 1 mM Ca2+)",IC50 (TXA2 synthetase [1]),LD50 (acute toxicity in rats),LD50 (acute toxicity in dogs)
20 nM,"O=c1[nH]nc(OCC[C@H](O)c2ccc(Cl)cc2)c(NCc2cccnc2)c1Br [Compound B, 4-bromo-6-[(3S)-(4-chlorophenyl)-3-hydroxypropoxy]-5-(3-pyridylmethylamino)-3(2H)-pyridazinone hydrochloride]",–,–,–,–,–
30 nM,"O=c1[nH]nc(OCC[C@@H](O)c2ccc(Cl)cc2)c(NCc2cccnc2)c1Br [Compound C, 4-bromo-6-[(3R)-(4-chlorophenyl)-3-hydroxypropoxy]-5-(3-pyridylmethylamino)-3(2H)-pyridazinone hydrochloride]",–,–,–,–,–

Compound,IC50 (TXA2 synthetase [2]),"IC50 (rabbit platelets; not stimulated, 1 mM Ca2+ alone)","IC50 (rabbit platelets; stimulated with collagen (10 μg/ml), 1 mM Ca2+)",IC50 (TXA2 synthetase [1]),LD50 (acute toxicity in rats),LD50 (acute toxicity in dogs)
"Cl.O=c1[nH]nc(OCCCc2ccc(Cl)cc2)c(NCc2cccnc2)c1Br [Compound A, 4-bromo-6-[3-(4-chlorophenyl)propoxy]-5-(3-pyridylmethylamino)-3(2H)-pyridazinone hydrochloride]",10 nM,1000 nM,9 nM,18 nM,≥ 2000 mg/kg,≥ 2000 mg/kg
